The text below walks through data of patent publication US12673954B2 (BRISTOL-MYERS SQUIBB COMPANY, priority 2021, dated 2026).

Structures are written as SMILES. Like-named read-outs stand apart in the source and are kept apart here.

Assay [1] has as its system NF-κB pathway, THP1-Dual™ cells. Description: STING reporter assay in THP1-Dual cells, NF-κB pathway (SEAP, QUANTI-Blue). Format: cell-based, human. The following applies: THP1-Dual cells, 10% human plasma, 20 hours, SEAP, 100% activation = 100 μM cGAMP, read-out: NFkB (EC50 μM). In short, it runs like this: (§1)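 THP-1-derived dual-reporter cells treated with serially diluted compounds (final top concentration 100 μM) for 20 h at 37° C. NF-κB read as SEAP via QUANTI-Blue at OD620; IRF read as Lucia luminescence via QUANTI-Luc after 5 min. 100% activation set by 100 μM cGAMP, baseline by DMSO.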
In general terms: In a reporter assay the amount or activity of a reporter protein is the signal.

Assay [2] concerns IRF pathway, THP1-Dual™ cells. Description: STING reporter assay in THP1-Dual cells, IRF pathway (Lucia luciferase, QUANTI-Luc). Type of assay: cell-based, human. The following applies: THP1-Dual cells, 10% human plasma, 20 hours, Lucia luciferase, 100% activation = 100 μM cGAMP, read-out: IRF (EC50 μM). In short, it runs like this:
as §1

A word on the EC50: it is the concentration needed to bring the measured effect to its halfway point. As for `Cc1cc(CC(=O)O[C@H](C)C(F)(F)F)c2oc(CNC(=O)c3cnn4cccnc34)cc2c1` [EXAMPLE 279, (R)-1,1,1-Trifluoropropan-2-yl 2-(5-methyl-2-((pyrazolo[1,5-a]pyrimidine-3-carboxamido)methyl)benzofuran-7-yl)acetate], the EC50 in assay [1] (Homo sapiens, THP1-Dual, 20 h) was 25 µM; in assay [2] (Homo sapiens, THP1-Dual, 20 h) it was 35 µM.

For `COC(=O)c1cc(Cl)cc2c(Cl)c([C@H](C)NC(=O)c3cnn4cccnc34)oc12` [EXAMPLE 114, Methyl (S)-3,5-dichloro-2-(1-(pyrazolo[1,5-a]pyrimidine-3-carboxamido)ethyl)benzofuran-7-carboxylate], the concentration giving a half-maximal response (EC50) in assay [1] (Homo sapiens, THP1-Dual, 20 h) stood at 0.89 µM; in assay [2] (Homo sapiens, THP1-Dual, 20 h), 0.97 µM.

For `COC(=O)c1cc(Cl)cc2cc(Cn3ccc4ccncc4c3=O)oc12` [Example 78, Methyl 5-chloro-2-((1-oxo-2,7-naphthyridin-2(1H)-yl)methyl)benzofuran-7-carboxylate], the EC50 in assay [1] (Homo sapiens, THP1-Dual, 20 h) turned out to be 3.7 µM; in assay [2] (Homo sapiens, THP1-Dual, 20 h), 3.4 µM.

For `COC(=O)c1c(O)ccc2cc(CNC(=O)c3cnn4cccnc34)oc12` [EXAMPLE 109, Methyl 6-hydroxy-2-((pyrazolo[1,5-a]pyrimidine-3-carboxamido)methyl)benzofuran-7-carboxylate], the EC50 in assay [1] (Homo sapiens, THP1-Dual, 20 h) stood at 1.1 µM; in assay [2] (Homo sapiens, THP1-Dual, 20 h), 0.9 µM.

Regarding `COC(=O)c1cccc2cc(Cn3cccc(-c4cnco4)c3=O)oc12` [EXAMPLE 17, Methyl 2-((3-(oxazol-5-yl)-2-oxopyridin-1(2H)-yl)methyl)benzofuran-7-carboxylate], the EC50 in assay [1] (Homo sapiens, THP1-Dual, 20 h) amounted to 73 µM; in assay [2] (Homo sapiens, THP1-Dual, 20 h), 48 µM.

In the case of `COC(=O)c1cc(Cl)cc2cc(CNC(=O)c3cnn4cccnc34)oc12` [Example 48, Methyl 5-chloro-2-((pyrazolo[1,5-a]pyrimidine-3-carboxamido)methyl)benzofuran-7-carboxylate], the EC50 in assay [1] (Homo sapiens, THP1-Dual, 20 h) came to 0.68 µM; in assay [2] (Homo sapiens, THP1-Dual, 20 h) it was 0.64 µM.

With `COC(OC(=O)c1cc(Cl)cc2cc(CNC(=O)c3cnn4cccnc34)oc12)C(F)(F)F` (single isomer, unassigned) [EXAMPLE 331, 2,2,2-Trifluoro-1-methoxyethyl 5-chloro-2-((pyrazolo[1,5-a]pyrimidine-3-carboxamido)methyl)benzofuran-7-carboxylate], the EC50 stood at 1.8 µM in assay [1] (Homo sapiens, THP1-Dual, 20 h) and 1.7 µM in assay [2] (Homo sapiens, THP1-Dual, 20 h).

Regarding `COC(=O)c1cc(Cl)cc2cc(CNC(=O)c3c(N)nn4cccnc34)oc12` [Example 63, Methyl 2-((2-aminopyrazolo[1,5-a]pyrimidine-3-carboxamido)methyl)-5-chlorobenzofuran-7-carboxylate], the EC50 in assay [1] (Homo sapiens, THP1-Dual, 20 h) was 16 µM; in assay [2] (Homo sapiens, THP1-Dual, 20 h), 10 µM.

For `Cc1cc(C(=O)O[C@H](C)C(F)(F)F)c2oc(CNC(=O)c3cnn4cccnc34)c(Cl)c2c1` [EXAMPLE 300, (R)-1,1,1-Trifluoropropan-2-yl 3-chloro-5-methyl-2-((pyrazolo[1,5-a]pyrimidine-3-carboxamido)methyl)benzofuran-7-carboxylate], the 50% effective concentration (EC50) was determined as 0.71 µM in assay [1] (Homo sapiens, THP1-Dual, 20 h) and 0.76 µM in assay [2] (Homo sapiens, THP1-Dual, 20 h).

Consider `O=C(OCC(F)(F)F)c1cc(Cl)cc2cc(CNC(=O)c3cnc4cccnn34)oc12` [EXAMPLE 369, 2,2,2-Trifluoroethyl 5-chloro-2-((imidazo[1,2-b]pyridazine-3-carboxamido)methyl)benzofuran-7-carboxylate], for which the EC50 in assay [1] (Homo sapiens, THP1-Dual, 20 h) worked out at 1.1 µM; in assay [2] (Homo sapiens, THP1-Dual, 20 h) it was 0.91 µM.

For `C[C@H](OC(=O)c1cc(F)cc2c(Cl)c(CNC(=O)c3cnn4cccnc34)oc12)C(F)(F)F` [EXAMPLE 289, (S)-1,1,1-Trifluoropropan-2-yl 3-chloro-5-fluoro-2-((pyrazolo[1,5-a]pyrimidine-3-carboxamido)methyl)benzofuran-7-carboxylate], the EC50 is 0.71 µM in assay [1] (Homo sapiens, THP1-Dual, 20 h) and 0.62 µM in assay [2] (Homo sapiens, THP1-Dual, 20 h).

With `CC(OC(=O)c1cc(Br)cc2cc(CNC(=O)c3cnn4cccnc34)oc12)C(F)(F)F` (single isomer, unassigned) [EXAMPLE 341, 1,1,1-Trifluoropropan-2-yl 5-bromo-2-((pyrazolo[1,5-a]pyrimidine-3-carboxamido)methyl)benzofuran-7-carboxylate], the EC50 in assay [1] worked out at 2.5 µM; in assay [2], 1.6 µM.

Take `O=C(OCC(F)(F)F)c1cccc2cc(CN3CCc4ccncc4C3=O)oc12` [EXAMPLE 215, 2,2,2-Trifluoroethyl 2-((1-oxo-3,4-dihydro-2,7-naphthyridin-2(1H)-yl)methyl)benzofuran-7-carboxylate]: the EC50 in assay [1] (Homo sapiens, THP1-Dual, 20 h) is 14 µM; in assay [2] (Homo sapiens, THP1-Dual, 20 h), 12 µM.

As to `CCOc1ncncc1C(=O)NCc1cc2cc(Cl)cc(C(=O)OC)c2o1` [Example 74, Methyl 5-chloro-2-((4-ethoxypyrimidine-5-carboxamido)methyl)benzofuran-7-carboxylate], the EC50 was 3.5 µM in assay [1] (Homo sapiens, THP1-Dual, 20 h) and 3.3 µM in assay [2] (Homo sapiens, THP1-Dual, 20 h).

In the case of `COC(=O)c1ccc(F)c2cc(Cn3cnc4ccncc4c3=O)oc12` [EXAMPLE 25], the EC50 in assay [1] (Homo sapiens, THP1-Dual, 20 h) is 15 µM; in assay [2] (Homo sapiens, THP1-Dual, 20 h), 10 µM.

For `O=C(OCC(F)(F)F)c1cc(F)cc2cc(Cn3cnc4ccncc4c3=O)oc12` [EXAMPLE 363, 2,2,2-Trifluoroethyl 5-fluoro-2-((4-oxopyrido[4,3-d]pyrimidin-3(4H)-yl)methyl)benzofuran-7-carboxylate], the EC50 turned out to be 3.2 µM in assay [1] (Homo sapiens, THP1-Dual, 20 h) and 3.5 µM in assay [2] (Homo sapiens, THP1-Dual, 20 h).

In the case of `CONC(=O)c1cc(Cl)cc2cc(CNC(=O)c3cnn4cccnc34)oc12` [EXAMPLE 406, N-((5-Chloro-7-(methoxycarbamoyl)benzofuran-2-yl)methyl)pyrazolo[1,5-a]pyrimidine-3-carboxamide], the EC50 in assay [1] (Homo sapiens, THP1-Dual, 20 h) turned out to be 7.1 µM; in assay [2] (Homo sapiens, THP1-Dual, 20 h), 9.4 µM.

For the molecule `O=C(OC1CCCC1)c1cc(Cl)cc2cc(CNC(=O)c3cnn4cccnc34)oc12` [EXAMPLE 243, Cyclopentyl 5-chloro-2-((pyrazolo[1,5-a]pyrimidine-3-carboxamido)methyl)benzofuran-7-carboxylate], the EC50 in assay [1] (Homo sapiens, THP1-Dual, 20 h) is 1.9 µM; in assay [2] (Homo sapiens, THP1-Dual, 20 h) it was 1.6 µM.

In the case of `COC(=O)c1cc(Cl)cc2cc(Cn3cnc4ccncc4c3=O)oc12` [Example 76, Methyl 5-chloro-2-((4-oxopyrido[4,3-d]pyrimidin-3(4H)-yl)methyl)benzofuran-7-carboxylate], the EC50 stood at 4.1 µM in assay [1] (Homo sapiens, THP1-Dual, 20 h) and 3 µM in assay [2] (Homo sapiens, THP1-Dual, 20 h).

Turning to `CC(OC(=O)c1cc(C(F)(F)F)cc2cc(CNC(=O)c3cnn4cccnc34)oc12)C(F)(F)F` (single isomer, unassigned) [EXAMPLE 350, 1,1,1-Trifluoropropan-2-yl 2-((pyrazolo[1,5-a]pyrimidine-3-carboxamido)methyl)-5-(trifluoromethyl)benzofuran-7-carboxylate], the EC50 in assay [1] was 54 µM; in assay [2] it was 17 µM.

In the case of `COC(=O)c1cc(Cl)cc2c(Cl)c(CNC(=O)c3cnn4cccnc34)oc12` [EXAMPLE 112, Methyl 3,5-dichloro-2-((pyrazolo[1,5-a]pyrimidine-3-carboxamido)methyl)benzofuran-7-carboxylate], the 50% effective concentration (EC50) in assay [1] (Homo sapiens, THP1-Dual, 20 h) is 0.26 µM; in assay [2] (Homo sapiens, THP1-Dual, 20 h), 0.2 µM.

For the molecule `O=C(OC(CF)CF)c1cc(F)cc2c(Cl)c(CNC(=O)c3cnn4cccnc34)oc12` [EXAMPLE 290, 1,3-Difluoropropan-2-yl 3-chloro-5-fluoro-2-((pyrazolo[1,5-a]pyrimidine-3-carboxamido)methyl)benzofuran-7-carboxylate], the EC50 in assay [1] (Homo sapiens, THP1-Dual, 20 h) was 0.35 µM; in assay [2] (Homo sapiens, THP1-Dual, 20 h), 0.25 µM.

Consider `Cc1ccc(C(=O)OCC(F)(F)F)c2oc(CN3CCc4ccncc4C3=O)cc12` [EXAMPLE 361], for which the EC50 was 7.2 µM in assay [1] (Homo sapiens, THP1-Dual, 20 h) and 5.5 µM in assay [2] (Homo sapiens, THP1-Dual, 20 h).
